# Results as given in patent US5686563A, “Biologically active peptides having n-terminal substitutions” (priority 1995, dated 1997).
# Square brackets hold non-standard residues; d marks the D form. Ends that are not written are not given here. Peptide text beside a SMILES is read from it. * marks the point of attachment. hArg = N=C(N)NCCCC[C@H](N)C(=O)O; Octanoyl = CCCCCCCC(=O)*
# Experiments:
# Test in all cases: Anaerobic antimicrobial susceptibility test (MIC)
# Format in all cases: cell-based
# P. gingivalis = details: 37° C., 24-48 hours; for MIC P. gingivalis (strain) W50: strain W50, BHI broth; for MIC P. gingivalis (strain) 9-14K-1: strain 9-14K-1, BHI broth; for MIC P. gingivalis (strain) 381: strain 381, BHI broth; for MIC P. gingivalis (strain) A7A1-28: strain A7A1-28, BHI broth; for MIC P. gingivalis (strain) FAY-19M-1: strain FAY-19M-1, BHI broth
# A. viscosus = details: BHI broth, 37° C., 24-48 hours
# S. mutans = details: BHI broth, 37° C., 24-48 hours
Compound,MIC P. gingivalis (strain) W50 (P. gingivalis),MIC A. viscos (A. viscosus),MIC P. gingivalis (strain) 9-14K-1 (P. gingivalis),MIC P. gingivalis (strain) 381 (P. gingivalis),MIC P. gingivalis (strain) A7A1-28 (P. gingivalis),MIC P. gingivalis (strain) FAY-19M-1 (P. gingivalis),MIC S. mutans (S. mutans)
CC[C@H](C)[C@H](NC(=O)[C@H](CCCCNC(=N)N)NC(=O)CNC(=O)[C@H](C)NC(=O)[C@@H](NC(=O)[C@H](CCCCNC(=N)N)NC(=O)[C@H](C)NC(=O)[C@@H](NC(=O)[C@H](CCCCNC(=N)N)NC(=O)CNC(=O)[C@H](C)NC(=O)[C@@H](NC(=O)[C@H](CCCCNC(=N)N)NC(=O)[C@H](C)NC(=O)[C@@H](NC(=O)[C@H](CCCCNC(=N)N)NC(=O)CNC(=O)[C@H](C)NC(=O)[C@@H](NC(=O)[C@@H](N)CCCCNC(=N)N)[C@@H](C)CC)[C@@H](C)CC)[C@@H](C)CC)[C@@H](C)CC)[C@@H](C)CC)C(=O)N[C@@H](C)C(N)=O [(SEQ ID NO: 66)-NH2] (H-[hArg]IAG[hArg]IA[hArg]IAG[hArg]IA[hArg]IAG[hArg]IA-NH2),4 μl/ml,,,,,,
CCCCCCCC(=O)N[C@@H](CCCCN)C(=O)N[C@H](C(=O)N[C@@H](C)C(=O)NCC(=O)N[C@@H](CCCCN)C(=O)N[C@H](C(=O)N[C@@H](C)C(=O)N[C@@H](CCCCN)C(=O)N[C@H](C(=O)N[C@@H](C)C(=O)NCC(=O)N[C@@H](CCCCN)C(=O)N[C@H](C(=O)N[C@@H](C)C(=O)N[C@@H](CCCCN)C(=O)N[C@H](C(=O)N[C@@H](C)C(=O)NCC(=O)N[C@@H](CCCCN)C(=O)N[C@H](C(=O)N[C@@H](C)C(N)=O)[C@@H](C)CC)[C@@H](C)CC)[C@@H](C)CC)[C@@H](C)CC)[C@@H](C)CC)[C@@H](C)CC [Oct-(SEQ ID NO: 27)-NH2] (Octanoyl-KIAGKIAKIAGKIAKIAGKIA-NH2),16 μl/ml,,,,,,
CCCCCCCC(=O)N[C@@H](CCCCN)C(=O)N[C@H](C(=O)N[C@@H](C)C(=O)NCC(=O)N[C@@H](CCCCN)C(=O)N[C@H](C(=O)N[C@@H](C)C(=O)N[C@@H](CCCCN)C(=O)N[C@H](C(=O)N[C@@H](C)C(=O)NCC(=O)N[C@@H](CCCCN)C(=O)N[C@H](C(=O)N[C@@H](C)C(=O)N[C@@H](CCCCN)C(=O)N[C@H](C(=O)N[C@@H](C)C(=O)NCC(=O)N[C@@H](CCCCN)C(=O)N[C@H](C(=O)N[C@@H](C)C(=O)O)[C@@H](C)CC)[C@@H](C)CC)[C@@H](C)CC)[C@@H](C)CC)[C@@H](C)CC)[C@@H](C)CC [Oct-(SEQ ID NO: 27)-OH] (Octanoyl-KIAGKIAKIAGKIAKIAGKIA-OH),1 μl/ml,,,,,,
CCCCCCCC(=O)N[C@@H](CCCCNC(=N)N)C(=O)N[C@H](C(=O)N[C@@H](C)C(=O)NCC(=O)N[C@@H](CCCCNC(=N)N)C(=O)N[C@H](C(=O)N[C@@H](C)C(=O)N[C@@H](CCCCNC(=N)N)C(=O)N[C@H](C(=O)N[C@@H](C)C(=O)NCC(=O)N[C@@H](CCCCNC(=N)N)C(=O)N[C@H](C(=O)N[C@@H](C)C(=O)N[C@@H](CCCCNC(=N)N)C(=O)N[C@H](C(=O)N[C@@H](C)C(=O)NCC(=O)N[C@@H](CCCCNC(=N)N)C(=O)N[C@H](C(=O)N[C@@H](C)C(N)=O)[C@@H](C)CC)[C@@H](C)CC)[C@@H](C)CC)[C@@H](C)CC)[C@@H](C)CC)[C@@H](C)CC [Oct-(SEQ ID NO: 66)-NH2] (Octanoyl-[hArg]IAG[hArg]IA[hArg]IAG[hArg]IA[hArg]IAG[hArg]IA-NH2),2 μl/ml,,,,,,
CCCCCCCC(=O)N[C@@H](CCCCN)C(=O)N[C@H](C(=O)N[C@@H](C)C(=O)N[C@@H](CCCCN)C(=O)N[C@@H](CCCCN)C(=O)N[C@H](C(=O)N[C@@H](C)C(=O)N[C@@H](CCCCN)C(=O)N[C@H](C(=O)N[C@@H](C)C(=O)N[C@@H](CCCCN)C(=O)N[C@@H](CCCCN)C(=O)N[C@H](C(=O)N[C@@H](C)C(=O)N[C@@H](CCCCN)C(=O)N[C@H](C(=O)N[C@@H](C)C(=O)N[C@@H](CCCCN)C(=O)N[C@@H](CCCCN)C(=O)N[C@H](C(=O)N[C@@H](C)C(=O)O)[C@@H](C)CC)[C@@H](C)CC)[C@@H](C)CC)[C@@H](C)CC)[C@@H](C)CC)[C@@H](C)CC [Oct-(SEQ ID NO: 86)-OH] (Octanoyl-KIAKKIAKIAKKIAKIAKKIA-OH),1 μl/ml,,,,,,
"(SEQ ID NO: 86)-OH: (Lys Ile Ala Lys Lys Ile Ala)3 unsubstituted at the N-terminal, C-terminal OH (H-KIAKKIAKIAKKIAKIAKKIA-OH)",4 μl/ml,32 μl/ml,16 μl/ml,16 μl/ml,4 μl/ml,8 μl/ml,16 μl/ml
KIAGKIAKIAGKIAKIAGKIA-NH2 [(SEQ ID NO: 27)-NH2],4 μl/ml,,,,,,
KIAKKIAKIAKKIAKIAKKIA-NH2 [(SEQ ID NO: 86)-NH2],4 μl/ml,16 μl/ml,8 μl/ml,8 μl/ml,2 μl/ml,,4 μl/ml
KVALKALKKVALKALKVALKAL-NH2 [(SEQ ID NO: 152)-NH2],4 μl/ml,16 μl/ml,4 μl/ml,32 μl/ml,"4,8 μl/ml",8 μl/ml,16 μl/ml
